Calls of active or inactive are those of the source.

The target in one test is T1, fMet-Leu-Phe receptor (Homo sapiens, UniProt P21462).
T1 sequence (P21462 whole entry): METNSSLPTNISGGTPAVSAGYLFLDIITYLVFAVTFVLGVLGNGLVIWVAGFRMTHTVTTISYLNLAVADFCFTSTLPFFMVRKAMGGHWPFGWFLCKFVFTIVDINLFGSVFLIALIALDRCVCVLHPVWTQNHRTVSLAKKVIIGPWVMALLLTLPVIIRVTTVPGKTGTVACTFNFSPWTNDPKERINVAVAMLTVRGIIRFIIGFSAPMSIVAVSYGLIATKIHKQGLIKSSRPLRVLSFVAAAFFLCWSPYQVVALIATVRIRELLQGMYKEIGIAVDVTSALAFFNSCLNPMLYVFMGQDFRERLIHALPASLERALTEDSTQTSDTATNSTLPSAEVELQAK
In words: FPR ligands, dose response (AID 519). The test is classed as functional.

The target in test [1] is T2, Heat shock factor protein 1 (Mus musculus, UniProt P38532).
T2 sequence (P38532 whole entry): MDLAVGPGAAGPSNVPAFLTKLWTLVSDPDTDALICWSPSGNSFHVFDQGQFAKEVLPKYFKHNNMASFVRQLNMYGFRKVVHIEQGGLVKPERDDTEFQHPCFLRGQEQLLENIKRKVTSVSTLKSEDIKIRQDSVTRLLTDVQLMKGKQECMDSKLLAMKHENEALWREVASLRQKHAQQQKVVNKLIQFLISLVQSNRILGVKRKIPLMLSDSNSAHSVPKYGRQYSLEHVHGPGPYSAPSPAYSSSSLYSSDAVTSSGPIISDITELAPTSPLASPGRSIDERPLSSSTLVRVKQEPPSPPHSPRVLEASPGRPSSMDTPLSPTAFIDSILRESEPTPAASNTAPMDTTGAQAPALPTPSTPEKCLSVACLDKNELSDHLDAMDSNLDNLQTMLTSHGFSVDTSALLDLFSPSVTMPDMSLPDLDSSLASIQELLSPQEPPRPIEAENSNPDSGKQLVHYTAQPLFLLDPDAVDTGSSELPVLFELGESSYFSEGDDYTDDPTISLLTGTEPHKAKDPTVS
The test can be described thus: HSF1 potentiators in luciferase reporter cells, confirmation, cell-based, NIH3T3, luminescence, dose retest (AID 435004).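 Note: stress induced by proteasome inhibitor MG132 added 30 min after compound; luciferase reporter driven by HSF1 response element in NIH3T3 cells; actives raise luminescence as potentiators of the MG132 stress response.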 The format is functional.

Test [2] is described as follows: Luminescent dose response cell-based high throughput screening assay for inhibitors of the Janus kinase 2 mutant JAK2V617F. [Related pubchem assays: 1446 (Primary screen.), 1521 (Confirmation assay.), 1486 (Counter screen.)]. The format is functional.
Test [3] concerns Vero. The test can be described thus: host cell cytotoxicity of antiviral hits, dose response, cytotoxicity control for West Nile virus antiviral project, secondary assay (AID 1650). The test is classed as functional. The conditions noted are these: Chlorocebus sabaeus.
In test [4] the target is T3, Ubiquitin-conjugating enzyme E2 N (Homo sapiens, UniProt P61088).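 Note: Dose-response confirmation in a TR-FRET assay detecting UBC13-driven polyubiquitin chain formation, inhibition measured.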
T3 sequence (P61088 whole entry): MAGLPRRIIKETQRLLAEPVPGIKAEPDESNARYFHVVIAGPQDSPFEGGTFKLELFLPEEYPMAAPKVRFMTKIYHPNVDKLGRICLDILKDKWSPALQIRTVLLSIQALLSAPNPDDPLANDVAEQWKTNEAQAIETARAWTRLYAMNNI
The test is classed as functional.

Test [5] deals with Streptococcus sp. 'group A'. The test can be described thus: growth inhibition of control SK(-) GAS strain, dose response, counter-screen for streptokinase expression inhibitor project, luminescence, kanamycin, BacTiterGlo, confirmation (AID 1900). The test is classed as functional, organism-based. In general terms: Counterscreens check selectivity or assay interference.
Test [6] deals with T4, Photoreceptor-specific nuclear receptor (Homo sapiens, UniProt Q9Y5X4). The test is classed as functional, cell-based.
T4 sequence (Q9Y5X4 whole entry): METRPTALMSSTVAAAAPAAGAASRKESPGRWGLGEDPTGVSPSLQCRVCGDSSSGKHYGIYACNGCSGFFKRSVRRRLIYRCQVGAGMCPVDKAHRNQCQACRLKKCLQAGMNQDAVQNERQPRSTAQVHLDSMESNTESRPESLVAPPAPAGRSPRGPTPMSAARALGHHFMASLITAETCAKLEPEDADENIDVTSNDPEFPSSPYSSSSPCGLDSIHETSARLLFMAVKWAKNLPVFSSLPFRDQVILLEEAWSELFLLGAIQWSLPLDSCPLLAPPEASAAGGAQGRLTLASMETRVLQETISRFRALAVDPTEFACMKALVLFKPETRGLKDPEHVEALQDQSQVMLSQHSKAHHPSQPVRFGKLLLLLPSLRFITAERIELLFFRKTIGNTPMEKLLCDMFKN
Another test concerns Streptococcus. The test can be described thus: Group A Streptococcus viability loss, dose response, counter-screen for streptokinase expression inhibitor project, luminescence, BacTiterGlo (AID 1915).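 Note: potency for reduction of bacterial viability or growth.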 The test is classed as functional, organism-based.
For test [7], the target named is T5, Voltage-gated N-type calcium channel alpha-1B subunit/Amyloid beta A4 precursor protein-binding family A member 1 (Homo sapiens, UniProt Q00975+Q02410). The test is classed as protein assay.
T5 sequence (Q00975 whole entry): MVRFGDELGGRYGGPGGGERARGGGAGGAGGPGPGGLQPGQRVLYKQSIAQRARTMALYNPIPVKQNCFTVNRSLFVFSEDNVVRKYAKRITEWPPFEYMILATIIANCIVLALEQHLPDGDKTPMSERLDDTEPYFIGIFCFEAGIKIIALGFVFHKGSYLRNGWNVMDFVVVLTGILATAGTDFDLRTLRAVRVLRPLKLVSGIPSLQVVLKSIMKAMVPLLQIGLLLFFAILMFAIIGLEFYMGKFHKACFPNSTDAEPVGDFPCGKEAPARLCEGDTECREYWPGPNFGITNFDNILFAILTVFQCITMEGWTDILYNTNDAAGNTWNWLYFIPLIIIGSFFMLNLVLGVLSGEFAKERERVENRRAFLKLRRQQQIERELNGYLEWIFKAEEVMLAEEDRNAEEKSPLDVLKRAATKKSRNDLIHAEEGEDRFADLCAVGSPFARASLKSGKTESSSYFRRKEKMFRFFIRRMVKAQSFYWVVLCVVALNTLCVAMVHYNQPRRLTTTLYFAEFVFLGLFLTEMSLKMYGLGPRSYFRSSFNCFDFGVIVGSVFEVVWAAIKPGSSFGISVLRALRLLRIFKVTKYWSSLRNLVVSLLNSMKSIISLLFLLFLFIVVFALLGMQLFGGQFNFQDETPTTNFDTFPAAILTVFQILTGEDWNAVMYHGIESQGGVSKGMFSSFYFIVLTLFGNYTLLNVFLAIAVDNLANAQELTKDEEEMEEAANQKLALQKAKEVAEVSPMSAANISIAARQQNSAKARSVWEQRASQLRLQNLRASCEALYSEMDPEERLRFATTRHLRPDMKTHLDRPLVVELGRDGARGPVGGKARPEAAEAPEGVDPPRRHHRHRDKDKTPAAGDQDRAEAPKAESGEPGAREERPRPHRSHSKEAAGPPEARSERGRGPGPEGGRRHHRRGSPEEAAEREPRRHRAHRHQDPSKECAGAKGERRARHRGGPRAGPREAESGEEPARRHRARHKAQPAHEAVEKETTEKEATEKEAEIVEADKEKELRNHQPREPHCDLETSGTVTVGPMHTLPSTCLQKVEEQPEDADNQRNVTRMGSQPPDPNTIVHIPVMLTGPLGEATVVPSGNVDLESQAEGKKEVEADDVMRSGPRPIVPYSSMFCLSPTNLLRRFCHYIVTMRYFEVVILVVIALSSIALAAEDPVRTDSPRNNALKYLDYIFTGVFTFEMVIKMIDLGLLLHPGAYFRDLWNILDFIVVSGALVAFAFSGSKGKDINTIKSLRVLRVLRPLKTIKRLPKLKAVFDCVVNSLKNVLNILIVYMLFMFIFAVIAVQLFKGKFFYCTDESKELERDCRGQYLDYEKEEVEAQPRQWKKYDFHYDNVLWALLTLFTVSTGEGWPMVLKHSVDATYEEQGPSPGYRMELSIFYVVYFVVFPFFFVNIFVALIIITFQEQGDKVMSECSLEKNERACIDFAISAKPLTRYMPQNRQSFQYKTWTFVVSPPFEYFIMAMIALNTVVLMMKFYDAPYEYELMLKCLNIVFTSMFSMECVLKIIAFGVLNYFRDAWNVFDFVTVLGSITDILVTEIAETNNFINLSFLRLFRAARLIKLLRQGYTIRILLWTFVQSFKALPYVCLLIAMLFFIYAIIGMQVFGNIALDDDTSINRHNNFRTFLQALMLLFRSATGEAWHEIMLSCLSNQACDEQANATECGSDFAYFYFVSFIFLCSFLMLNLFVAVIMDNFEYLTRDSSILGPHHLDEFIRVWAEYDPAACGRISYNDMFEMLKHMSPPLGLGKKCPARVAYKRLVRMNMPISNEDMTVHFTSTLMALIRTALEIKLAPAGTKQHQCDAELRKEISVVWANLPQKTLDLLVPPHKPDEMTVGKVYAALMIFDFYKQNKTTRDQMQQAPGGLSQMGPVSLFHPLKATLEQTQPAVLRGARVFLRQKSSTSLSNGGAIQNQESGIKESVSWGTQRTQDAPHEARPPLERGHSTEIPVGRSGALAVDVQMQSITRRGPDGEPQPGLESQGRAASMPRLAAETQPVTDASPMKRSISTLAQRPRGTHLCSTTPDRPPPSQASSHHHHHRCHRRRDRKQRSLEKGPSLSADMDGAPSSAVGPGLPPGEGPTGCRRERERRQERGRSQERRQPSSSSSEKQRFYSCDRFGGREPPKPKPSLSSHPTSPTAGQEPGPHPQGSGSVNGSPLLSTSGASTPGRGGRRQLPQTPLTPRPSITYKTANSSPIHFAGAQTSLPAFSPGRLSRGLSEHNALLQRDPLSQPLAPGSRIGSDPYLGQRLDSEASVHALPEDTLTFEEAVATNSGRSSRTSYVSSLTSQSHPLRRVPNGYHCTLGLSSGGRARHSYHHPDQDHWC
T5 sequence (Q02410 whole entry): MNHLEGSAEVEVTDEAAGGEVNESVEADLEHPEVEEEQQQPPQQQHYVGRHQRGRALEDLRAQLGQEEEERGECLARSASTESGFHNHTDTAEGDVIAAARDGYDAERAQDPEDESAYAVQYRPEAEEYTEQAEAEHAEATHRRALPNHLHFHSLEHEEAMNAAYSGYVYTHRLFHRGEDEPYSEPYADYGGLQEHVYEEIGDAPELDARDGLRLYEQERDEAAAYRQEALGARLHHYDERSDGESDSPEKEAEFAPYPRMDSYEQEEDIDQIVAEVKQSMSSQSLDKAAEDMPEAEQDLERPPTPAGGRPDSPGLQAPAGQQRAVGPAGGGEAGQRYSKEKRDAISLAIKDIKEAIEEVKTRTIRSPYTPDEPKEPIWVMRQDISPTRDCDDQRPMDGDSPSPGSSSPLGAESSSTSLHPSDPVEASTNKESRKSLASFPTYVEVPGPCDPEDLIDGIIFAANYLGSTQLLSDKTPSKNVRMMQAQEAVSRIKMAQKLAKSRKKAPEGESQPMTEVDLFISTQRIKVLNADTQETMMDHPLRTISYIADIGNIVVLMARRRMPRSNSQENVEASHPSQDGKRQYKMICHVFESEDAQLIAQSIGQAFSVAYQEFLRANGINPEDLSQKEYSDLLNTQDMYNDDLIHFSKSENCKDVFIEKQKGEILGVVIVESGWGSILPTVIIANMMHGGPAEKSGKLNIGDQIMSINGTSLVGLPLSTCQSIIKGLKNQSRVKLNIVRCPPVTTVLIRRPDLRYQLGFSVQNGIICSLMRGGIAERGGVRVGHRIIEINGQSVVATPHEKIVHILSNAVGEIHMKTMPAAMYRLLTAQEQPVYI
The target of test [8] is T4, Photoreceptor-specific nuclear receptor. The test can be described thus: NR2E3 inverse agonists, dose response, biochemical, TR-FRET (AID 463256). The format is functional. A general note: TR-FRET usually uses a lanthanide donor and a delayed reading to cut background.
The target of a further test is T6, Streptokinase A (Streptococcus pyogenes serotype M1, UniProt P10520).
T6 sequence (P10520 whole entry): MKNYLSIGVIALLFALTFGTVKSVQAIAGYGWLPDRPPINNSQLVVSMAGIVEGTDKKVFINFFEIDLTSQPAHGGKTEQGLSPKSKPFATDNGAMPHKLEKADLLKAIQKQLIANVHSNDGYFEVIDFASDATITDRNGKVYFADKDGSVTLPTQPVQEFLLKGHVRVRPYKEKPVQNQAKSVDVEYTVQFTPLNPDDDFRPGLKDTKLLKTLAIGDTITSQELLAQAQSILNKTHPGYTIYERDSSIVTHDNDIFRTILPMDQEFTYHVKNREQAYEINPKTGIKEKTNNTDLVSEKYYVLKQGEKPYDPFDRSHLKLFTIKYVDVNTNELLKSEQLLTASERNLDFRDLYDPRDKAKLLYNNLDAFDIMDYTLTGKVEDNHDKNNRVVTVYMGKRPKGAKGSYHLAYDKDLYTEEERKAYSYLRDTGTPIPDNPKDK
In words: S. pyogenes streptokinase expression inhibitors, potency, dose response, plasminogen activation absorbance, OD405 (AID 1914).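 Note: secreted streptokinase activity via plasminogen activation per viability signal from cell pellet.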 The test is classed as functional, Streptococcus pyogenes M1 GAS.

For test [9], the target named is Peroxisome proliferator-activated receptor gamma/Nuclear receptor corepressor 2 (Homo sapiens, UniProt P37231+Q9Y618). In words: Counterscreen for NR2E3 inverse agonists: TR-FRET-based biochemical high throughput dose response assay to identify inverse agonists of the interaction between peroxisome proliferator-activated receptor gamma (PPARg) and nuclear receptor co-repressor 2 (NCOR2). The test is classed as functional.

The target of test [10] is T5, Voltage-gated N-type calcium channel alpha-1B subunit/Amyloid beta A4 precursor protein-binding family A member 1. The format is protein assay. The source holds these as a separate data set.
Test [11] addresses Voltage-gated inwardly rectifying potassium channel KCNH2 (Homo sapiens, UniProt Q12809). In words: hERG protection from proarrhythmic block, potency, dose response, cell-based, thallium flux (AID 2121). The format is ADME. (In general: The hERG channel carries a current that helps repolarise heart muscle cells.)
Test [12] is described as follows: Luminescence Cell-Based Dose Response HTS to Identify Inhibitors of 5'UTR Stem-Loop Driven Prion Protein mRNA Translation in H4 Neuroglioblastoma Cells. [Related pubchem assays: 1827 (Project Summary), 1813 (Primary HTS)]. The test is classed as functional.
The nature of test [13]: inhibitors of firefly luciferase expression or activity, dose response, H4 neuroglioma cells, luminescence (AID 1990). The test is classed as functional, cell-based.
Test [14] is described as follows: microbe, parasite or virus in culture. The test is classed as functional. The conditions noted are these: Mycobacterium tuberculosis.
A short description of test [15]: NIH-3T3 fibroblast cytotoxicity, dose response, cytotoxicity control, cell-based, fluorescence, Alamar Blue, secondary assay (AID 2327).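 Note: NIH-3T3 mouse fibroblasts cultured with fluconazole at 8 µg/mL.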 The format is functional.
The test system of test [16] is Vero. In words: Vero cell cytotoxicity, cytotoxicity control for flavivirus capping enzyme inhibitors (AID 588742). The test is classed as functional. To be noted: Chlorocebus sabaeus.
In another test the target is Beta-galactosidase (Escherichia coli, UniProt Q8VNN2). In words: beta-galactosidase enzyme inhibitors and activators, dose response, artefact control for CCR6 antagonist project, biochemical, E. coli enzyme, set 3 (AID 504712). The test is classed as functional.
A short description of test [17]: inhibitors of SNCA 5'UTR-driven reporter translation, confirmation, H4 neuroglioma cells, luminescence (AID 1988). The test is classed as functional, cell-based.
Test [18] is described as follows: C. albicans growth with fluconazole, confirmation, fluorescence, retest (AID 2467). The test is classed as functional, cell-based.
In the next test the test system is Danio rerio. The test can be described thus: In Vivo Angiogenesis Dose-Response Confirmation. [Related pubchem assays: 732 (Assay preceding this confirmatory assay.)]. The format is functional, organism-based.
Test [19] is described as follows: Luminescence Cell-Based Dose Response to Identify Activators of 5'UTR Stem-Loop Driven Prion Protein mRNA Translation in H4-C Neuroglioblastoma Cells. [Related pubchem assays: 1829 (Project Summary), 1814 (Primary HTS)]. The format is functional.
Test [20] is described as follows: Luminescence Cell-Based Dose Response to Identify Activators of Luciferase Translation or Activity in H4-C Neuroglioblastoma Cells. [Related pubchem assays: 1829 (Project Summary), 1814 (Primary HTS)]. The format is functional.
Test [21] in a line: Luminescence Cell-Based Dose Confirmation HTS to Identify Activators of 5'UTR Stem-Loop Driven Alpha-Synuclein mRNA Translation in H4 Neuroglioblastoma Cells. [Related pubchem assays: 1829 (Project Summary), 1814 (Primary HTS)]. The test is classed as functional.
The subject of the next test is H4. In words: Luminescence Cell-Based Dose Response HTS to Identify Activators of 5'UTR Stem-Loop Driven Prion Protein mRNA Translation in H4 Neuroglioblastoma Cells. [Related pubchem assays: 1829 (Project Summary), 1814 (Primary HTS)]. The format is functional. The conditions noted are these: Homo sapiens.
Test [22] can be described thus: Luminescence Cell-Based Dose Response HTS to Identify Activators of Luciferase Translation or Activity in H4 […] Cells. [Related pubchem assays: 1829 (Project Summary), 1814 (Primary HTS)]. The test is classed as functional.
The nature of test [23]: Luminescence Cell-Based Dose Confirmation to Identify Activators of 5'UTR Stem-Loop Driven Alpha-Synuclein mRNA Translation in H4 Neuroglioblastoma Cells. [Related pubchem assays: 1829 (Project Summary), 1814 (Primary HTS)]. The test is classed as functional.
The target in test [24] is 5-hydroxytryptamine receptor 1A (Homo sapiens, UniProt P08908). The test is classed as functional.
Sequence of 5-hydroxytryptamine receptor 1A (P08908 whole entry): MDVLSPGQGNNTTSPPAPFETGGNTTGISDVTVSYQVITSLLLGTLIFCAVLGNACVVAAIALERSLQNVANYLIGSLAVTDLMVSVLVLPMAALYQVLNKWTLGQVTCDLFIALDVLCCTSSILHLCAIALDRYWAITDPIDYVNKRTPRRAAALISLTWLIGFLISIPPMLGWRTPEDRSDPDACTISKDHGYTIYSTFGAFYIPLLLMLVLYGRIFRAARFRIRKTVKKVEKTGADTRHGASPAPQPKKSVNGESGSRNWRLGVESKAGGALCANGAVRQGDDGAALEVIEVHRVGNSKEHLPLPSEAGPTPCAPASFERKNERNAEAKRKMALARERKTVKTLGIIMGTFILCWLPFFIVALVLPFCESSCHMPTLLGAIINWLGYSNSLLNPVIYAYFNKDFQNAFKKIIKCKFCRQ
Test [25] addresses T7, Small ubiquitin-related modifier 1 (Homo sapiens, UniProt P63165). In words: inhibitors of SUMO1 peptide binding, dose response, biochemical, fluorescence polarization, uHTS hits (AID 624382). The format is functional. To be noted: read-out: IC50_Mean.
In test [26] the target is T7, Small ubiquitin-related modifier 1. The test can be described thus: inhibitors of SUMO1 partner interactions, dose response, biochemical, FRET (AID 624383). The conditions noted are these: read-out: IC50_Mean. The test is classed as functional.

T7 sequence (P63165 whole entry): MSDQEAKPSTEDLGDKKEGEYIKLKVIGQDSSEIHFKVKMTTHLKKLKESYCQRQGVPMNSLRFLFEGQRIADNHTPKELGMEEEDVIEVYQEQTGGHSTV

As a reminder, the Ki is a measure of affinity in units of concentration, obtained from inhibition or displacement. Broadly, the EC50 is the concentration at which the effect is half-maximal. As for `Cc1cccc(OCC(=O)Nc2cc(C)ccc2O)c1`, on fMet-Leu-Phe receptor, the Ki was > 66.7 µM (inactive). The EC50 in test [1] was 4.61 µM (active). In addition, in [2], the IC50 was 0.676 µM (active).
`CCCN(CCC)CCCNC(=O)c1cc2c(=O)n(CC)c3ccccc3c2s1`: in the test with Vero [3], the CC50 was 18.8 µM (active). For the same molecule, the IC50 in [4] is > 20 µM (inactive).
As for `Cc1ccnc(NC(=S)N2CCN(c3cccc(C(F)(F)F)c3)CC2)c1`, the EC50 in [5] is 1.66 µM (active); in the test with Streptococcus it was 22.4 µM (active); at Streptokinase A, > 150 µM (not active). The IC50 in test [6] is 1.76 µM (active); in [7], 11.6 µM (active); in test [8], > 39.9 µM (not active); in test [9] it was > 39.9 µM (not active); in test [10], > 50 µM (inactive).
Consider `CCc1ccc(/C=C/C(=O)c2cc(Br)ccc(=O)c2O)cc1`, for which the EC50 in [5] is 1.8 µM (active); in test [11], 1.15 µM (active); in [12], 15 µM (active); in test [13], > 120 µM (not active); in the test on Streptococcus it was 2.6 µM (active); in test [15] it was 15.5 µM (inconclusive). In addition, the EC50 in [17] was 15.5 µM (active); in test [18], 1.52 µM (active). In addition, the CC50 in [14] is 11.5 µM (active); in the test on Vero [16] it was 13.5 µM (active). For the same molecule, the IC50 on Beta-galactosidase was > 66.6 µM (inactive).
`Cc1ccc2c(c1)/C(=C1/Nc3ccc(Br)cc3/C1=N\O)C(=O)N2`: the IC50 in the test on Danio rerio was 2.5 µM (active).
For `COc1ccc(/C=C2\SC(=O)N(CCNC(=O)Cn3cnnn3)C2=O)cc1`, the half-maximal effective concentration (EC50) is 0.533 µM (active) in test [19]; 0.405 µM (active) in test [20]; 2.28 µM (active) in test [21]; 0.122 µM (active) with H4; 33.3 µM (active) in test [22]; 0.926 µM (active) in [23].
For `Cc1noc(C)c1COc1ccc(C(=O)OC(C)C(=O)Nc2ccc(N3CCOCC3)cc2)cc1` (stereo not drawn), the EC50 in test [24] is on record as > 50 µM (not active).
Turning to `Cc1cccc2c1NC(=O)/C2=C1\Nc2ccccc2\C1=N/OCCN1CCNCC1`, the IC50 with Danio rerio is 6.32 µM (active).
As for `Cc1nc2ccc3nc(NC(=O)c4ccco4)sc3c2s1`, the IC50 in [8] is 4.28 µM (active); in [25] it was > 66.6 µM (inactive); in test [9], 4.28 µM (active); in test [26], 12.1 µM (active).
Regarding `O=C(N/N=C/c1ccccc1F)c1csc2c1CCCC2`, the EC50 in [19] is 0.264 µM (active); in test [20] it was 0.323 µM (active); in test [21], < 0.1 µM (active); in [22], < 0.1 µM (inconclusive); in test [23], 0.227 µM (active).
Take `CNCCc1c[nH]c2ccccc12`: the EC50 in test [24] was 5.1 µM (active).

The record behind these values is ChEMBL document CHEMBL1201862, “PubChem BioAssay data set” (2004).
